Source: patent US10647706B2, “Chemokine CXCR1 and CXCR2 receptor antagonist compounds, and use thereof in the treatment of chemokine-mediated pathologies” (GALDERMA RESEARCH & DEVELOPMENT, priority 2014, dated 2020)
Where two headings read alike, the source gives them in different places.

Tests used:
Assay type in all cases: cell-based
[1] = target: CXCR1 receptor (Homo sapiens (Human), UniProt P25024); experiment: β-arrestin recruitment test, U2OS hCXCR1 β-arrestin cells stimulated with CXCL8; conditions: CXCL8 10 nM
CXCR1 receptor, sequence (P25024 whole entry): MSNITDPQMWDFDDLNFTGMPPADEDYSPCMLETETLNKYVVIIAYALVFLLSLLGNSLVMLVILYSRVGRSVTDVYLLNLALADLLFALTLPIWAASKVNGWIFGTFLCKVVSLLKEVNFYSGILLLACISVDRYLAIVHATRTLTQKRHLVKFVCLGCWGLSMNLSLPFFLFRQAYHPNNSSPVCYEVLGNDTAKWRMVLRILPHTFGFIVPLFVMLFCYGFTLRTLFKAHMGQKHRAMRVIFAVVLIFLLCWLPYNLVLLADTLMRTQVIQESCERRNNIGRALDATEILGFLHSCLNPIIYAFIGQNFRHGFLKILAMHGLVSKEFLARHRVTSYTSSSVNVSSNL
Protocol: (§1) The in vitro affinity of the compounds of the present invention for the CXCR1 and CXCR2 receptors is determined on a functional test of β-arrestin recruitment type after activation of the receptor.
(§2) To evaluate the direct interaction of the CXCR2 or CXCR1 receptor with β-arrestin 2, a test of β-arrestin 2 recruitment for CXCR2 or CXCR1 based on complementation of the β-galactosidase enzyme (Olson K. R., Eglen R. M., Beta-galactosidase complementation: a cell-based luminescent assay platform for drug discovery. Assay Drug Dev. Technol. 2007 February; 5(1); 137-44), as established by DiscoveRx Corporation was used. Stimulation of these two cell lines with CXCL8 (10 nM) induces the recruitment of β-arrestin 2, as indicated by a significant increase in the induction factor. All the CXCR2 antagonists are tested in a dose-dependent manner and the concentration corresponding to 50% inhibition of the response is determined (IC50=concentration of half-inhibition).
(§3) β-Arrestin Recruitment Test: “PathHunter HEK293-CXCR2” or “U20S hCXCR1 β-arrestin” cells (DiscoveRx Corporation) were seeded overnight at 10 000 cells/well (384-well format) in 20 μl of Opti MEM I medium. Preincubation with the antagonist or the vehicle for 30 minutes at 37° C. and 5% CO2 was followed by 60 minutes of stimulation with CXCL8 at 37° C. and 5% CO2. The cells were then placed at room temperature for 30 minutes. The PathHunter detection reagent (DiscoveRx Corporation) was added. After incubation for 60 minutes at room temperature, the β-galactosidase induced by the luminescence during the β-arrestin-CXCR2 interaction was measured for 0.3 s in an Envision 2102 Multilabel Reader (PerkinElmer Life and Analytical Sciences). The data are analysed via a non-linear curve procedure using the XLFit4 (IDBS) exploitation software, and the IC50 values are determined.

[2] = target: CXCR2 receptor (Homo sapiens (Human), UniProt P25025); experiment: β-arrestin recruitment test, PathHunter HEK293-CXCR2 cells stimulated with CXCL8; conditions: CXCL8 10 nM
CXCR2 receptor, sequence (P25025 whole entry): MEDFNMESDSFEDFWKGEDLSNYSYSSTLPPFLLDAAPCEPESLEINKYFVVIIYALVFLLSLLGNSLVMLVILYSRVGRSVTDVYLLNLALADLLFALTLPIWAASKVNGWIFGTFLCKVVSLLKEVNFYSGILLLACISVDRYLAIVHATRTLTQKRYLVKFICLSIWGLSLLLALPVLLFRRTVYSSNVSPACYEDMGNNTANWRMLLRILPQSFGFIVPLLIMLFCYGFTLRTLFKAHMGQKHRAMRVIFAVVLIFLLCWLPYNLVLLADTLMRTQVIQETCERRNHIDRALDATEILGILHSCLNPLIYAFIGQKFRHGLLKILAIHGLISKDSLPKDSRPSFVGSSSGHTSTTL
Protocol: as §1, §2, §3

[3] = test system: human neutrophils; experiment: Neutrophil migration (chemotaxis assay, Transwell, IL-8); conditions: 10 nM IL-8, 1 hour incubation
Protocol: Purification and culturing of human neutrophils Peripheral blood preparations (18-24 hours) are collected in duly registered clinics or clinical laboratories from healthy volunteers who consented to the re-use of their blood for scientific research (Supplier: Biopredic International). The neutrophils are separated from the whole blood via a positive selection (Whole Blood CD15 MicroBeads: MiltenyiBiotech, Reference: 130-091-058). The cells are resuspended at a rate of 4×10^6 cells per mL in RPMI 1640 culture medium (Invitrogen) supplemented with filtered and heat-inactivated 5% foetal calf serum (FCS) (Invitrogen).
The experiments were performed in “HTS Transwell 96 Well Permeable Supports 3-μm pore size” filter plates (Corning, Reference: 3386). The response doses of CXCRS antagonists are applied in the lower compartments of the plates in the presence of 10 nM of IL-8 (1-72 aa, R&D Systems, Cat. No. IL-208). The neutrophils are then seeded in the upper compartment (2×10^5 cells/well). After 1 hour of incubation at 37° C. and 5% CO2, the number of viable cells that have crossed the membrane and are in the lower compartment is determined via a colorimetric method (CellTiter 96® AQueous One Solution Cell Proliferation Assay—PROMEGA Cat # G3581). Each treatment condition is evaluated in duplicate. The IC50 values are calculated with the XLFit4 software.

[4] = Homo sapiens, Neutrophil, class symbols, read-out: Migration of human neutrophils IC50
[5] = Homo sapiens, Neutrophil, read-out: Migration of h neutrophils IC50

| Structure (SMILES) | IC50 ([1]; class symbols) | IC50 ([2]; class symbols) | IC50 [1] | IC50 [3, 4] | IC50 [3, 5] | IC50 [2] | IC50 ([3]; class symbols, read-out: Migration of human neutrophils IC50) |
| --- | --- | --- | --- | --- | --- | --- | --- |
| CC[C@@H](Nc1c(Nc2ccc(Cl)c(S(C)(=O)=NC)c2O)c(=O)c1=O)c1ccccn1 (single isomer, unassigned; (+)) [Example 13] | ≥ 200 nM | ≥ 20 nM |  |  |  |  |  |
| CC[C@@H](Nc1c(Nc2ccc(Cl)c(S(C)(=O)=NC)c2O)c(=O)c1=O)c1ccccn1 (single isomer, unassigned; (-)) [Example 12] | < 200 nM | < 20 nM | 28 nM | < 300 nM | 82 nM | 16 nM |  |
| CC[C@@H](Nc1c(Nc2cccc(S(C)(=O)=NC)c2O)c(=O)c1=O)c1ccccn1 (single isomer, unassigned; (-)) [Example 14] | < 200 nM | ≥ 20 nM |  | ≥ 300 nM |  |  |  |
| CC[C@@H](Nc1c(Nc2cccc(S(C)(=O)=NC)c2O)c(=O)c1=O)c1ccccn1 (single isomer, unassigned; (-)) [Example 15] | ≥ 200 nM |  |  |  |  |  |  |
| CCC(CC)Nc1c(Nc2cccc(S(C)(=O)=NC)c2O)c(=O)c1=O (single isomer, unassigned; (-)) [Example 18] | ≥ 200 nM | ≥ 20 nM |  | ≥ 300 nM |  |  |  |
| CCC(CC)Nc1c(Nc2ccc(Cl)c(S(C)(=O)=Nc3ccncc3)c2O)c(=O)c1=O (stereo not shown) [Example 4, 3-{4-Chloro-2-hydroxy-3-methane[(N-pyridin-4-yl)sulfoximino]phenylamino}-4-(1-ethylpropylamino)cyclobut-3-ene-1,2-dione] | ≥ 200 nM | ≥ 20 nM |  |  |  |  |  |
| CN=S(C)(=O)c1c(Cl)ccc(Nc2c(N[C@@H](c3ccc(C)o3)[C@H]3CCCS3)c(=O)c2=O)c1O (stereo partly drawn) [Example 5, 3-{4-Chloro-2-hydroxy-3-methane[(N-methyl)sulfoximino]phenylamino}-4-{[(S)-(5-methylfuran-2-yl)-(R)-tetrahydrothiophen-2-ylmethyl]amino}cyclobut-3-ene-1,2-dione] | < 200 nM | ≥ 20 nM |  | < 300 nM |  |  |  |
| CS(=N)(=O)c1c(Cl)ccc(NC(=O)Nc2cccc(F)c2Cl)c1O (stereo not shown) [Example 6, 1-(2-Chloro-3-fluorophenyl)-3-(4-chloro-2-hydroxy-3-methanesulfoximinephenyl)-urea] | ≥ 200 nM | ≥ 20 nM |  |  |  |  |  |
| CN=S(C)(=O)c1c(Cl)ccc(NC(=O)Nc2cccc(F)c2Cl)c1O (stereo not shown) [Example 7, 1-(2-Chloro-3-fluorophenyl)-3-{4-chloro-2-hydroxy-3-methane[(N-methyl)sulfoximino]phenyl}urea] | ≥ 200 nM | ≥ 20 nM |  |  |  |  |  |
| CCC(CC)Nc1c(Nc2ccc(Cl)c(S(C)(=O)=NCCN(C)C)c2O)c(=O)c1=O (stereo not shown) [Example 10, 3-[4-Chloro-3-[N-(2-dimethylaminoethyl)-S-methylsulfonimidoyl]-2-hydroxyanilino]-4-(1-ethylpropylamino)cyclobut-3-ene-1,2-dione] | ≥ 200 nM | ≥ 20 nM |  |  |  |  |  |

Next, values leading:

| IC50 ([1]; class symbols) | IC50 ([2]; class symbols) | IC50 [1] | IC50 [3, 4] | IC50 [3, 5] | IC50 [2] | IC50 ([3]; class symbols, read-out: Migration of human neutrophils IC50) | Structure (SMILES) |
| --- | --- | --- | --- | --- | --- | --- | --- |
|  | < 20 nM | 36 nM | ≥ 300 nM | 356 nM | 18 nM |  | CC[C@@H](Nc1c(Nc2cccc(S(C)(=O)=NC)c2O)c(=O)c1=O)c1ccc(C)o1 (single isomer, unassigned; (+)) [Example 16] |
| ≥ 200 nM |  |  |  |  |  |  | CC[C@@H](Nc1c(Nc2cccc(S(C)(=O)=NC)c2O)c(=O)c1=O)c1ccc(C)o1 (single isomer, unassigned; (+)) [Example 17] |
| < 200 nM | < 20 nM |  | < 300 nM |  |  |  | CC[C@@H](Nc1c(Nc2ccc(Cl)c(S(C)(=O)=NC)c2O)c(=O)c1=O)c1ccc(C)o1 (single isomer, unassigned; (+)) [Example 20] |
| < 200 nM | < 20 nM |  | < 300 nM |  |  |  | CC[C@@H](Nc1c(Nc2ccc(Cl)c(S(C)(=N)=O)c2O)c(=O)c1=O)c1ccc(C)o1 (stereo partly drawn) [Example 1, 3-(4-Chloro-2-hydroxy-3-methanesulfoximinophenylamino)-4-[(R)-1-(5-methylfuran-2-yl)propylamino]cyclobut-3-ene-1,2-dione] |
|  |  |  |  |  |  | < 300 nM | CC[C@@H](Nc1c(Nc2ccc(Cl)c(S(C)(=O)=NC)c2O)c(=O)c1=O)c1ccc(C)o1 (stereo partly drawn) [Example 2, 3-{4-Chloro-2-hydroxy-3-methane[(N-methyl)sulfoximino]phenylamino}-4-[(R)-1-(5-methylfuran-2-yl)propylamino]cyclobut-3-ene-1,2-dione] |
| ≥ 200 nM | ≥ 20 nM |  |  |  |  |  | CC[C@@H](Nc1c(Nc2ccc(Cl)c(S(C)(=O)=Nc3ccncc3)c2O)c(=O)c1=O)c1ccc(C)o1 (stereo partly drawn) [Example 3, 3-{4-Chloro-2-hydroxy-3-methane[(N-pyridin-4-yl)sulfoximino]phenylamino}-4-[(R)-1-(5-methylfuran-2-yl)propylamino]cyclobut-3-ene-1,2-dione] |
| < 200 nM | ≥ 20 nM |  | ≥ 300 nM |  |  |  | CC[C@@H](Nc1c(Nc2cccc(S(C)(=O)=NC)c2O)c(=O)c1=O)c1ccc(C)o1 (stereo partly drawn) [Example 8, 3-{2-Hydroxy-3-methane[(N-methyl)sulfoximino]phenylamino}-4-[(R)-1-(5-methylfuran-2-yl)propylamino]cyclobut-3-ene-1,2-dione] |
| ≥ 200 nM | ≥ 20 nM |  |  |  |  |  | CC[C@@H](Nc1c(Nc2ccc(Cl)c(S(C)(=O)=NCCOC)c2O)c(=O)c1=O)c1ccc(C)o1 (stereo partly drawn) [Example 11, 3-[4-Chloro-2-hydroxy-3-[N-(2-methoxyethyl)-S-methylsulfonimidoyl]anilino]-4-[[(1R)-1-(5-methyl-2-furyl)propyl]amino]cyclobut-3-ene-1,2-dione] |
